Patent publication US7459444B2, “Inhibitors of chymase” (Janssen Pharmaceutica N.V., priority 2004, dated 2008)

biological target: T1, human skin chymase (Homo sapiens, UniProt P23946); experiment: Enzyme-catalyzed hydrolysis assay (chymase inhibition); assay type: biochemical; conditions: 10 nM enzyme, 0.7 mM Suc-Ala-Ala-Pro-Phe-pNa, pH 8.0, 37° C., 30 minutes
T1 construct: using human skin chymase (Cortex Biochem); purchased Cortex Biochem
T1 sequence (P23946 22-247): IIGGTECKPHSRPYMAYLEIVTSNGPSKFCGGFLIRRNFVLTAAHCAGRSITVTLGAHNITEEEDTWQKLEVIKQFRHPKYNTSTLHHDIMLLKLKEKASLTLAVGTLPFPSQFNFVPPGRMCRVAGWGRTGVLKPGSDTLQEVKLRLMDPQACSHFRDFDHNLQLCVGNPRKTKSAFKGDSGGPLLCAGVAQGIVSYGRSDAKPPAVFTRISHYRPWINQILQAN
Description: Enzyme-catalyzed hydrolysis rates were measured spectro-photometrically using human skin chymase (Cortex Biochem), a chromogenic substrate (Suc-Ala-Ala-Pro-Phe-pNa) (Bachem) in aqueous buffer (450 mM Tris, 1800 mM NaCl, pH 8.0), and a microplate reader (Molecular Devices). […] Percent inhibition was calculated by comparing the initial reaction slopes of the samples without inhibitor to those with inhibitor. IC50 values were determined using a four parameter fit logistics model. The term “NT” indicates a compound that was not tested.

Compound	IC50
CC(=O)Oc1ccccc1/C=C/NC(=O)C(c1csc2ccc(Cl)cc12)P(C)(=O)O (stereo not drawn) [Cpd 148]	0.23 ± 0.04 µM
CN(Cc1cc2ccccc2cc1NC(=O)C(c1cccc2ccccc12)P(=O)(O)O)C1CCN(C(=O)c2ccc3ccccc3c2)CC1 (stereo not drawn) [Cpd 102, {[3-({Methyl-[1-(naphthalene-2-carbonyl)-piperidin-4-yl]-amino}-methyl)-naphthalen-2-ylcarbamoyl]-naphthalen-1-yl-methyl}-phosphonic acid]	3.45 µM
COc1ccc(C2CCN(C(=O)c3sc4ccccc4c3C(C(=O)Nc3ccc4ccccc4c3)P(C)(=O)O)CC2)cc1 (stereo not drawn) [Cpd 35]	0.235 ± 0.045 µM
COc1ccc2c(c1)c(C(C(=O)Nc1ccc3ccccc3c1)P(=O)(O)O)cn2C (stereo not drawn) [Cpd 74]	1.39 ± 0.554 µM
O=C(Nc1ccc2ccccc2c1)C(c1cn(CC2CC2)c2ccccc12)P(=O)(O)O (stereo not drawn) [Cpd 62]	0.82 ± 0.5 µM
O=C(Nc1ccc2ccccc2c1)C(c1nnn[nH]1)c1csc2ccc(Cl)cc12 (stereo not drawn) [Cpd 88, 2-(5-Chloro-benzo[b]thiophen-3-yl)-n-naphthalen-2-yl-2-(1h-tetrazol-5-yl)-acetamide]	2.04 ± 0.19 µM
CP(=O)(O)C(C(=O)N/C=C/c1ccccc1O)c1csc2ccc(Cl)cc12 (stereo not drawn) [Cpd 149, {(5-Chloro-benzo[b]thiophen-3-yl)-[2-(2-hydroxy-phenyl)-vinylcarbamoyl]-methyl}-methyl-phosphinic acid]	0.043 µM
O=C(Nc1ccc2ccsc2c1)C(c1cccc2ccccc12)P(=O)(O)O (stereo not drawn) [Cpd 59]	0.635 µM
CN(C(=O)c1cc2ccccc2cc1NC(=O)C(c1cccc2ccccc12)P(=O)(O)O)C1CC=C(c2ccccc2)CC1 (stereo not drawn) [Cpd 46, ({3-[Methyl-(4-phenyl-cyclohex-3-enyl)-carbamoyl]-naphthalen-2-ylcarbamoyl}-naphthalen-1-yl-methyl)-phosphonic acid]	0.388 ± 0.116 µM
O=C(Nc1cc2ccccc2cc1C(=O)N1CCC(n2c(=O)[nH]c3ccc(Cl)cc32)CC1)C(c1cccc2ccccc12)P(=O)(O)O (stereo not drawn) [Cpd 60, ({3-[4-(6-Chloro-2-oxo-2,3-dihydro-benzoimidazol-1-yl)-piperidine-1-carbonyl]-naphthalen-2-ylcarbamoyl}-naphthalen-1-yl-methyl)-phosphonic acid]	0.663 µM
O=C(Nc1cc2ccccc2cc1CNC1CCCC1)C(c1cccc2ccccc12)P(=O)(O)O (stereo not drawn) [Cpd 124]	6.7 µM
COC(=O)COc1cc2ccccc2cc1NC(=O)C(c1cccc2ccccc12)P(=O)(O)O (stereo not drawn) [Cpd 123]	6.6 µM
Cn1cc(C(C(=O)Nc2ccc3ccccc3c2)P(=O)(O)O)c2cc(F)ccc21 (stereo not drawn) [Cpd 11]	0.037 ± 0.01 µM
O=C(Nc1ccc2ccccc2c1)C(c1csc2ccc(Cl)cc12)P(=O)(O)CCCc1ccc2c(c1)OCO2 (stereo not drawn) [Cpd 39]	0.31 ± 0.04 µM
Cn1cc(C(C(=O)Nc2ccc3ccccc3c2)P(=O)(O)O)c2ccc(Cl)cc21 (stereo not drawn) [Cpd 52]	0.48 ± 0.18 µM
O=C(NC=Cc1ccc(O)cc1)C(c1csc2ccc(Cl)cc12)P(=O)(O)O (stereo not drawn) [Cpd 66]	0.868 ± 0.13 µM
O=C(Nc1ccc2ccccc2c1)C(c1csc2ccc(-c3ccccc3)cc12)P(=O)(O)O (stereo not drawn) [Cpd 71, [(5-phenyl-benzo[b]thiophen-3-yl)-(naphthalen-2-ylcarbamoyl)-methyl]-phosphonic acid]	1 ± 0.3 µM
COc1ccc(CCCP(=O)(O)C(C(=O)Nc2ccc3ccccc3c2)c2csc3ccc(Cl)cc23)cc1 (stereo not drawn) [Cpd 53]	0.49 ± 0.16 µM
COC(=O)COc1c(NC(=O)C(c2cccc3ccccc23)P(=O)(O)O)ccc2ccccc12 (stereo not drawn) [Cpd 134, [2-(2-Naphthalen-1-yl-2-phosphono-acetylamino)-naphthalen-1-yloxy]-acetic acid methyl ester]	8.11 ± 4.75 µM
O=C(Nc1ccc2ccccc2c1)C(c1cc2ccccc2s1)P(=O)(O)O (stereo not drawn) [Cpd 140, [(Benzo[b]thiophen-2-yl)-(naphthalen-2-ylcarbamoyl)-methyl]-phosphonic acid]	9.2 ± 0.73 µM
O=C(Nc1cc2ccccc2cc1CNC1CCCCC1)C(c1cccc2ccccc12)P(=O)(O)O (stereo not drawn) [Cpd 70, [(3-Cyclohexylaminomethyl-naphthalen-2-ylcarbamoyl)-naphthalen-1-yl-methyl]-phosphonic acid]	0.93 ± 0.07 µM

Compound	IC50
O=C(Nc1cc2ccccc2cc1C(=O)N1CCC2(CC1)C(=O)NCN2c1ccccc1)C(c1cccc2ccccc12)P(=O)(O)O (stereo not drawn) [Cpd 104]	3.88 ± 2.41 µM
CP(=O)(O)C(C(=O)N/C=C/c1ccccc1Cl)c1csc2ccc(Cl)cc12 (stereo not drawn) [Cpd 160]	0.065 ± 0.02 µM
CP(=O)(O)C(C(=O)N/C=C/c1ccc(F)cc1)c1csc2ccc(Cl)cc12 (stereo not drawn) [Cpd 24]	0.1 ± 0.033 µM
CN(CCc1ccccc1)Cc1cc2ccccc2cc1NC(=O)C(c1cccc2ccccc12)P(=O)(O)O (stereo not drawn) [Cpd 126]	7 µM
({3-[(1-Benzoyl-piperidin-4-ylamino)-methyl]-naphthalen-2-ylcarbamoyl}-naphthalen-1-yl-methyl)-phosphonic acid [Cpd 44]	0.35 ± 0.22 µM
COC(=O)c1cc2ccccc2cc1NC(=O)C(c1cccc2ccccc12)P(=O)(O)O (stereo not drawn) [Cpd 75, 3-(2-Naphthalen-1-yl-2-phosphono-acetylamino)-naphthalene-2-carboxylic acid methyl ester]	1.4 ± 0.6 µM
Cn1cc(C(C(=O)N/C=C/c2cccc(F)c2)P(C)(=O)O)c2cc(Cl)ccc21 (stereo not drawn) [Cpd 6]	0.02 µM
CN(CCCC1c2ccccc2C=Cc2ccccc21)Cc1cc2ccccc2cc1NC(=O)C(c1cccc2ccccc12)P(=O)(O)O (stereo not drawn) [Cpd 112]	4.74 ± 1.65 µM
CP(=O)(O)C(C(=O)N/C=C/c1cccc(F)c1F)c1csc2ccc(Cl)cc12 (stereo not drawn) [Cpd 163]	0.017 µM
O=C(NC=Cc1cc(F)cc(F)c1)C(c1csc2ccc(Cl)cc12)P(=O)(O)O (stereo not drawn) [Cpd 199]	0.0018 µM
CP(=O)(O)C(C(=O)Nc1ccc2ccccc2c1)c1c(C(=O)N2CCC(c3ccccc3)CC2)sc2ccccc12 (stereo not drawn) [Cpd 32, Methyl-{(naphthalen-2-ylcarbamoyl)-[2-(4-phenyl-piperidine-1-carbonyl)-benzo[b]thiophen-3-yl]-methyl}-phosphinic acid]	0.21 ± 0.01 µM
CP(=O)(O)C(C(=O)N/C=C/c1ccc(F)cc1F)c1csc2ccc(Cl)cc12 (stereo not drawn) [Cpd 171]	0.025 ± 0.01 µM
O=C(Nc1cc2ccccc2cc1C(=O)N1CCC(c2nc3ccccc3s2)CC1)C(c1cccc2ccccc12)P(=O)(O)O (stereo not drawn) [Cpd 113]	4.8 ± 1.69 µM
O=C(C=Cc1cc2ccccc2cc1NC(=O)C(c1cccc2ccccc12)P(=O)(O)O)NCc1ccccc1 (stereo not drawn) [Cpd 109, {[3-(2-Benzylcarbamoyl-vinyl)-naphthalen-2-ylcarbamoyl]-naphthalen-1-yl-methyl}-phosphonic acid]	4.4 µM
O=C(Nc1cc2ccccc2cc1C(=O)N1CCC(CCc2ccccc2)C1)C(c1cccc2ccccc12)P(=O)(O)O (stereo not drawn) [Cpd 54]	0.51 ± 0.124 µM
O=C(Nc1ccc2ccccc2c1)C(C1=CS(=O)(=O)c2ccc(Cl)cc21)P(=O)(O)O (stereo not drawn) [Cpd 86, [(5-Chloro-1,1-dioxo-1H-1λ^6-benzo[b]thiophen-3-yl)-(naphthalen-2-ylcarbamoyl)-methyl]-phosphonic acid]	1.9 ± 0.4 µM
COc1ccc(C=CNC(=O)C(c2csc3ccc(Cl)cc23)P(=O)(O)O)cc1OC (stereo not drawn) [Cpd 49]	0.43 ± 0.09 µM
Cn1cc(C(C(=O)Nc2ccc3ccccc3c2)P(=O)(O)O)c2cc(C#N)ccc21 (stereo not drawn) [Cpd 65]	0.84 ± 0.19 µM
O=C(Nc1cnc2ccccc2c1)C(c1cccc2ccccc12)P(=O)(O)O (stereo not drawn) [Cpd 57]	0.609 µM
CP(=O)(O)C(C(=O)Nc1ccc2ccccc2c1)c1c(C(=O)O)sc2ccccc12 (stereo not drawn) [Cpd 118]	5.72 ± 0.013 µM
O=C(Nc1ccc2ccccc2c1)C(c1cn(CC=Cc2ccccc2)c2ccccc12)P(=O)(O)O (stereo not drawn) [Cpd 27]	0.13 ± 0.02 µM
